Results: patent publication US20060018833A1, “Method and system for screening compounds for muscular and/or neurological activity in animals” (priority 2004, published 2006)

Key:
teleosts = experiment: Electrically induced seizures in teleost fish, blocking by anticonvulsants; type: in vivo, teleost (Medaka); details: compound in the water, "(10-80 μM)" printed after phenytoin
Source text: Consistent electrical-induced seizures are achieved by optimizing both maximum voltage achieved, overall power delivered during relatively constant current. Electrodes are placed in the wells from above just prior to commencement of the test.
Convulsions are produced by the placing a circular array of 6 stainless steal wire electrodes (around 100 μm in outside diameter) around the perimeter of a single well in a 48 well plate. The electrodes are insulated to the tips on the side of the electrodes that face the inside of the well. In this way the fish is less likely to contact the metal of the electrode that faces the well wall. A seizure is evoked by the application of a constant duration pulse of a constant current sine wave oscillating voltage field. The amount of current applied depends on the electrical impedance of the arrangement. In general around 30 mA of current at around 70 RMS volts is sufficient to produce a reliable seizure in a 2-3 week old Medaka fish. During the pulse the output is randomly scrambled to opposing pairs of the six electrodes via a high voltage MUX circuit. The electronics to produce the above stimulation are apparent to person skilled at the art.
The application of sufficient electrical current to the water containing a fish will evoke a behavioral response. However, at a specific range of current/voltage settings (30-110 V; 20 mA-0.1 mA) an animal will have a seizure, experience a post-ictal period of quiescence and recover. […] Application of a battery of classic anticonvulsants known to block seizure generation in animals will block the expression of seizures in teleost.

zebrafish = experiment: Determining convulsive dose of convulsant added to well water (zebrafish); type: in vivo
Protocol: To establish the minimum seizure threshold dose (CD50) for convulsant agents 5 ml of tank water is placed a single well of a 12-well plate. […] When the animal has acclimated to the new conditions, a solution containing convulsant (e.g. a 20 mM solution of pentylenetetrazol (PTZ) in tank water) is added to the well at a rate of 0.1 ml per minute. The amount of solution being added is constant. The behavior of the fish is then monitored continuously during the rest period beginning with the addition of the convulsant. At the point which the animal has a convulsion the addition is stopped and the animal removed. […] This dose is considered the convulsive dose (>97%) for teleost.

Medaka = experiment: Determining convulsive dose of convulsant added to well water (Medaka); type: in vivo; details: 20 mM PTZ solution added at 0.1 ml per minute to 5 ml tank water
Protocol: To establish the minimum seizure threshold dose (CD50) for convulsant agents 5 ml of tank water is placed a single well of a 12-well plate. A single juvenile teleost is placed in the well and allowed to acclimate for a period of time in a darkened room. When the animal has acclimated to the new conditions, a solution containing convulsant (e.g. a 20 mM solution of pentylenetetrazol (PTZ) in tank water) is added to the well at a rate of 0.1 ml per minute. The amount of solution being added is constant. The behavior of the fish is then monitored continuously during the rest period beginning with the addition of the convulsant. At the point which the animal has a convulsion the addition is stopped and the animal removed. […] This dose is considered the convulsive dose (>97%) for teleost.

Medaka fish = experiment: Chemically (PTZ) induced seizure activity in Medaka fish, anticonvulsant screen (FIG. 5); type: in vivo
Protocol: One embodiment of the screen for anticonvulsant activity in the presence of a chemical stimulus includess placing a single or plurality of adult (1 month) fish into each well of a 12 well plate. This well contains 4 ml of pure tank water with a defined pH (7.0 can be between 6-8), hardness (90 ppm). The test compounds are then applied to the wells in 12 concentrations ranging from 10 μM to 10 mM. The compounds are diluted from standard DMSO stock solutions stored in other multiwell plates. Test compounds are added as either tank water diluted solutions or as DMSO concentrates. […] The compounds are added to wells after the optical clarity (transmittance) of the well water is determined. Following addition of the compounds to the wells a second transmittance measure is made to determine if the compound has dropped out of solution at any of the concentrations. […] Highly insoluble compounds are solublized in cyclodextrins or mixed with wet fish food, dried and applied at a known amount to wells containing a fish that was not fed for a day.
Plates containing soluble compounds are covered with plastic tops from the manufacturer and placed in an incubator set around 27 degrees centigrade and an oxygen rich atmosphere. […] Fish are examined by the operator for deaths and they are scored as such.
Testing is performed in a visible light darkened, sound dampened room upon a highly diffused infrared light box. […] Excess or erratic activity is automatically determined by a computer algorhythim during a 20 minute control period. […]
The image sequence collected following the administration is examined by a computer program which determines a number of factors about the activity of the fish including orientation, location, distance traveled, and cross sectional area of the fish's silhouette. […] Activity levels reaching specific thresholds and the type of activity (circular swimming and erratic darting) are scored along with periods of quiescence. […] The latency to first seizure and the magnitude and frequency of seizures are scored for each well. […]

Structure (SMILES): NC(=O)N1c2ccccc2C=Cc2ccccc21 [Carbamazepine]
- blocking seizure specific behavioral movements following electrical stimulation (teleosts): capable of blocking seizure specific behavioral movements

Structure (SMILES): C1CCc2nnnn2CC1 [PTZ, pentylenetetrazol]
- seizure evoked, share of fish (zebrafish; adult zebrafish immersed in 5 mM PTZ, within 30 minutes of addition, 10 fish): 100%
- terminal concentration at which the animal has a convulsion (minimum seizure threshold dose, CD50) (zebrafish; zebrafish, 20 mM PTZ solution added at 0.1 ml per minute to 5 ml tank water): around 6 mM
- terminal concentration at which the animal has a convulsion (minimum seizure threshold dose, CD50) (Medaka): 10 mM
- seizure in well with convulsant only (Medaka fish; FIG. 5 lower left well, 6 mM PTZ): has seizure

Structure (SMILES): CCCC(CCC)C(=O)O [Valproate, valproic acid]
- seizure in well with convulsant and anticonvulsant (Medaka fish; FIG. 5 lower right well, 6 mM PTZ and Valproate 5 mM): Only the fish in the lower left well has seizure
- seizure in well with anticonvulsant only (Medaka fish; FIG. 5 upper right well, only valproate 5 mM, no convulsant): Only the fish in the lower left well has seizure

Structure (SMILES): NC(=O)OCC(COC(N)=O)c1ccccc1 [felbamate]
- blocking seizure specific behavioral movements following electrical stimulation (teleosts): capable of blocking seizure specific behavioral movements

Structure (SMILES): NCC1(CC(=O)O)CCCCC1 [gabapentin]
- blocking seizure specific behavioral movements following electrical stimulation (teleosts): capable of blocking seizure specific behavioral movements

Structure (SMILES): O=C1NC(=O)C(c2ccccc2)(c2ccccc2)N1 [phenytoin]
- blocking seizure specific behavioral movements following electrical stimulation (teleosts): capable of blocking seizure specific behavioral movements
